Measured values as given in patent US20240041039A1, “COMPOSITIONS AND METHODS FOR CONTROLLING PLANT PATHOGENS INCLUDING NEMATODES” (Kannar Earth Science, Ltd., priority 2022, published 2024).

System: root knot Meloidogyne sp. nematodes
Assay: Two-minute contact of live root-knot nematodes with water-based solutions in watch glass
Assay type: in vivo
Conditions: one drop of water-based solution, fatality recorded within 45 seconds
Method: Live root knot nematodes were collected from soil and kept in shallow water in small glass beakers at room temperature. The individual components and combined formulation were prepared according to the following procedures. Aqueous solutions of individual components were prepared at the concentrations as follows: 400 ppm baicalin (95% purity; Shaanxi Darwin Biotech Co, China), 500 ppm water soluble chitosan (85% purity; Shaanxi Rainwood Biotech Co Ltd, China) and 200 ppm L-glutathione (99% purity; Hunan Insen Biotech Co Ltd, China). Since use of liquid polymer is quite common in seed treatment for better and smoother coating or coverage, each of the individual components and combinations of the components was also prepared as a solution in a cellulose-based carrier (Slurry Buddy 110 from […] Science, Ltd.). Baicalin was dissolved in 1.0 ml of DMSO separately prior to addition to the carrier. Chitosan and glutathione were dissolved in 7.8 ml water prior to addition to the 90.0 ml carrier. In each case, the pH of the solution was adjusted to 5.7. […] This liquid flowable formulation can be used as a ready-to-use (RTU) formulation for seed application. […] One drop of the water-based solutions described above was added to the watch glass with the swimming nematode and the reaction of the nematode was recorded for a period of two-minutes. […]

O=C(O)[C@H]1O[C@@H](Oc2cc3oc(-c4ccccc4)cc(=O)c3c(O)c2O)[C@H](O)[C@@H](O)[C@@H]1O [Baicalin, baicalin]
Nematode Reaction: Repelling

N[C@@H](CCC(=O)N[C@@H](CS)C(=O)NCC(=O)O)C(=O)O [Glutathione, L-glutathione]
Nematode Reaction: Repelling
